Assay [1] deals with Human immunodeficiency virus type 1 protease (Human immunodeficiency virus 1, UniProt Q72874, V82A). The assay can be described thus: Inhibitory concentration against TL3-resistant HIV(V82A) mutant.
The target of assay [2] is T1, Human immunodeficiency virus type 1 protease (Human immunodeficiency virus 1, UniProt Q72874, G48V). In words: Inhibitory concentration against drug-resistant HIV(G48V) mutant protease.
In assay [3] the target is T2, Human immunodeficiency virus type 1 protease (Human immunodeficiency virus 1, UniProt Q72874, F53L). The assay can be described thus: Inhibitory concentration against TL3-resistant HIV(F53L) mutant protease. The following applies: pooled result: one value given for 5 cell lines, strains, targets or settings.
For assay [4], the target named is T3, Human immunodeficiency virus type 1 protease (Human immunodeficiency virus 1, UniProt Q72874, V82F). The assay can be described thus: Inhibitory concentration against drug-resistant HIV(V82F) mutant protease.
Assay [5] concerns Feline immunodeficiency virus. The assay can be described thus: Inhibitory concentration against Feline immunodeficiency virus (FIV) protease. Type of assay: functional.
The target in assay [6] is T4, Human immunodeficiency virus type 1 protease (Human immunodeficiency virus 1, UniProt Q72874). The assay can be described thus: Inhibitory concentration against human immunodeficiency virus (HIV) protease.
For assay [7], the target named is T4, Human immunodeficiency virus type 1 protease. The assay can be described thus: Inhibitory concentration against wild-type human immunodeficiency virus (HIV-WT) protease.
The subject of assay [8] is Feline immunodeficiency virus. The assay can be described thus: Inhibitory concentration against wild-type feline immunodeficiency virus (FIV-WT) protease at a concentration of 200 uM. Type of assay: functional.
For assay [9], the system named is Feline immunodeficiency virus. The assay can be described thus: Inhibitory concentration against wild-type feline immunodeficiency virus (FIV-WT) protease. The assay is classed as functional.
The target in assay [10] is Human immunodeficiency virus type 1 protease (Human immunodeficiency virus 1, UniProt Q72874, L63P). In words: Inhibitory concentration against TL3-resistant HIV(L63P) mutant.
The target of assay [11] is T2, Human immunodeficiency virus type 1 protease. In words: Inhibitory concentration against TL3-resistant HIV(F53L) mutant.
Assay [12] concerns the target T1, Human immunodeficiency virus type 1 protease. In words: Inhibitory concentration against drug-resistant HIV(G48V) mutant.
The target of assay [13] is T4, Human immunodeficiency virus type 1 protease. In words: Inhibitory concentration against TL3-resistant HIV(V771) mutant.
Assay [14] shares this target. In words: Inhibitory concentration against TL3-resistant HIV(M461) mutant.
The target is the same in assay [15]. The assay can be described thus: Inhibitory concentration against TL3-resistant HIV(L241) mutant.
Assay [16] has as its target T3, Human immunodeficiency virus type 1 protease. In words: Inhibitory concentration against drug-resistant HIV(V82F) mutant.

Structures are written as SMILES. Starred links: 1 amine or outer side, 2 acyl side, 3 side chain; linkers in the order of their positions; H or OH if unused. Non-standard residues stand in square brackets, D forms with d. Residues, ends and D or L forms follow the SMILES beside them. β3hPhe(2R-OH) = O=C([C@H](O)[C@H](Cc1ccccc1)N[*:1])[*:2]

The IC50 is the point on the concentration scale where inhibition reaches its midpoint. Higher therefore signals lower potency. By inhibition is commonly meant how much of the control response was suppressed. Read a low inhibition as a response near the control.

As for `CC(=O)N[C@@H](Cc1c[nH]c2ccccc12)C(=O)N[C@H](C(=O)N[C@@H](Cc1ccccc1)[C@@H](O)C(=O)N[C@H]1Cc2ccc(cc2)OCCCNC(=O)[C@H](C(C)C)NC1=O)C(C)C`, the IC50 was determined as 10 nM in [1]; 71 nM in assay [2]; 49 nM in assay [3]; 30 nM in [4]; 49 nM in assay [5]; 10 nM in assay [6].

With `COC(=O)[C@H](O)[C@H](Cc1ccccc1)NC(=O)[C@@H](NC(=O)[C@H](Cc1ccc(O)cc1)NC(C)=O)C(C)C`, the midpoint of inhibition in assay [7], the IC50, lay at 71000 nM. The inhibition at 200 µM in assay [8] was 32%.

In assay [7], `COC(=O)[C@H](O)[C@H](Cc1ccccc1)NC(=O)[C@@H](NC(=O)[C@H](Cc1ccccc1)NC(C)=O)C(C)C` had a 50% inhibitory concentration (IC50) of 113000 nM. For the same molecule, the inhibition at 200 µM in assay [8] was 24%.

Take `CC(C)[C@@H]1NC(=O)[C@@H](NC(=O)C(=O)C(Cc2ccccc2)NC(=O)OC(C)(C)C)Cc2ccc(cc2)OCCCNC1=O` (stereo partly specified): the figures for the concentration for half-maximal inhibition (IC50) in [7] and in assay [9] were 13 nM and 4000 nM, respectively.

As for `CC(=O)N[C@@H](Cc1ccccc1)C(=O)N[C@H](C(=O)N[C@@H](Cc1ccccc1)[C@@H](O)C(=O)N[C@H]1Cc2ccc(cc2)OCCCNC(=O)[C@H](C(C)C)NC1=O)C(C)C`, the half-inhibitory concentration (IC50) was 12 nM in [1]; 94 nM in assay [2]; 79 nM in assay [3]; 32 nM in assay [4]; 35 nM in [5]; 7 nM in assay [6].

In the case of `COC(=O)[C@H](O)[C@H](Cc1ccccc1)NC(=O)[C@@H](NC(=O)[C@H](Cc1c[nH]c2ccccc12)NC(C)=O)C(C)C`, the half-maximal inhibitory concentration (IC50) in assay [7] was 14000 nM; in assay [9], 66000 nM.

For `CC(C)[C@@H]1NC(=O)[C@@H](NC(=O)[C@@H](O)[C@H](Cc2ccccc2)NC(=O)OC(C)(C)C)Cc2ccc(cc2)OCCCNC1=O`, the concentration for half-maximal inhibition (IC50) in assay [7] was 100 nM; in assay [9], 46000 nM.

In [7], `CC(C)[C@@H]1NC(=O)[C@@H](NC(=O)[C@H](O)[C@H](Cc2ccccc2)NC(=O)OC(C)(C)C)Cc2ccc(cc2)OCCCNC1=O` came in with an IC50 of 630 nM. This molecule came in with an inhibition at 200 µM in assay [8] of 43%.

In the case of `CC(=O)N[C@@H](Cc1ccc(O)cc1)C(=O)N[C@H](C(=O)N[C@@H](Cc1ccccc1)[C@@H](O)C(=O)N[C@H]1Cc2ccc(cc2)OCCCNC(=O)[C@H](C(C)C)NC1=O)C(C)C`, the IC50 amounted to 11 nM in assay [1]; 70 nM in assay [10]; 70 nM in [11]; 57 nM in assay [12]; 70 nM in assay [13]; 70 nM in assay [14]. Besides, the IC50 is 27 nM in assay [5], 70 nM in assay [15], 26 nM in [16] and 6 nM in assay [6].

In the case of `CC(=O)N[C@@H](Cc1ccc(O)cc1)C(=O)N[C@H](C(=O)N[C@@H](Cc1ccccc1)[C@@H](O)C(=O)N[C@@H](Cc1ccc(O)cc1)C(=O)N[C@H](C(N)=O)C(C)C)C(C)C` (Ac-YV[β3hPhe(2R-OH)]YV-NH2), the figures for the IC50 in assay [7] and in assay [9] were 212 nM and 560 nM, respectively.

These data come from ChEMBL document CHEMBL1133785, “Design, synthesis, and biological evaluation of HIV/FIV protease inhibitors incorporating a conformationally constrained macrocycle with a small P3' residue” (Bioorg Med Chem Lett, 2001).
